Results published in paper PMC11062922 (Nature Chemical Biology, 2023).

Molecular target: T1, MAP3K6 (Homo sapiens, UniProt O95382)
T1 construct: endogenous in cells
T1 sequence (O95382 1-1288): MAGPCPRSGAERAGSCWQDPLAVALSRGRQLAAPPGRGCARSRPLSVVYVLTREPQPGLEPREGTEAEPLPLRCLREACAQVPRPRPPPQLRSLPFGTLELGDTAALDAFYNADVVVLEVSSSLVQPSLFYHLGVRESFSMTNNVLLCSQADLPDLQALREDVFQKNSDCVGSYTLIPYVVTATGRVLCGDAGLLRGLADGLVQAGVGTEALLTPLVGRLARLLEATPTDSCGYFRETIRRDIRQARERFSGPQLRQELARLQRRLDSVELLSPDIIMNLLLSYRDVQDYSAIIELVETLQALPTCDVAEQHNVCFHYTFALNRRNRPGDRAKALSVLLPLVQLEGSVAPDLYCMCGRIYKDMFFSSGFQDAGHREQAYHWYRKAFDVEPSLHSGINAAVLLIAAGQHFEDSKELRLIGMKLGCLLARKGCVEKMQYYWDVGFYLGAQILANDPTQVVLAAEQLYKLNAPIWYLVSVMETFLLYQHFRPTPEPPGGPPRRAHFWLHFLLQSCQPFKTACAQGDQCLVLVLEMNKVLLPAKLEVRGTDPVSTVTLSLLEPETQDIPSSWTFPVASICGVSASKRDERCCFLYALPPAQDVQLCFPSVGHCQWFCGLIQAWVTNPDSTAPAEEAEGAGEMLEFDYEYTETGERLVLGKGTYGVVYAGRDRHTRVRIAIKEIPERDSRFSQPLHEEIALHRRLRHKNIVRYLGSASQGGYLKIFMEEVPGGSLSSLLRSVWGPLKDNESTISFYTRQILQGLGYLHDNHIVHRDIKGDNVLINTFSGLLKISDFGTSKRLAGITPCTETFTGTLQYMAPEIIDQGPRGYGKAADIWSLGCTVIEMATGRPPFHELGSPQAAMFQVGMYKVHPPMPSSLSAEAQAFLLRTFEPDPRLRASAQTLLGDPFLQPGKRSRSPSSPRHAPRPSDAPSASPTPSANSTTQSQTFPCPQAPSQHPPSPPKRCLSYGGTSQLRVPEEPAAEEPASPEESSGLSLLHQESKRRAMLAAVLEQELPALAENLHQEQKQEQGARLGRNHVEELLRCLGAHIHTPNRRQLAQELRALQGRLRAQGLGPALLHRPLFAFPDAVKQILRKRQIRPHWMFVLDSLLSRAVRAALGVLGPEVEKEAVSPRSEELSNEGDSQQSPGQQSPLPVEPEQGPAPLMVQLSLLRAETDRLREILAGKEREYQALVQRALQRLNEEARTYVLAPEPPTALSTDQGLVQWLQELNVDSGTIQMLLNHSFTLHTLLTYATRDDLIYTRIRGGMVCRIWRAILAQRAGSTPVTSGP
Experiment: Kinobeads two-dose competition binding: MAP3K6
Details: for CATDS: target MAP3K6

Compound	CATDS	potency estimated from few doses (Kinobeads two-dose, Drugmatrix - all 2, read-out: apparent Kd MAP3K6) [µM]
CCc1cc2c(cc1N1CCC(N3CCOCC3)CC1)C(C)(C)c1[nH]c3cc(C#N)ccc3c1C2=O [Alectinib]	0	
CCN1CCN(Cc2ccc(Nc3ncc(F)c(-c4cc(F)c5nc(C)n(C(C)C)c5c4)n3)nc2)CC1 [Abemaciclib]	0	
Nc1ncnc2[nH]c(-c3ccccc3)nc12 [AH5015_KCGS]	0	
N#CC1(c2ccc(NC(=O)c3cccnc3NCc3ccncc3)cc2)CCCC1 [Apatinib]	0	
CC(C)N1CC(=O)N(C)c2cnc(Nc3cccc(S(=O)(=O)CCN4CCOCC4)c3)nc21 [BI00009348]		0.698
CN(C)C/C=C/C(=O)Nc1cc2c(Nc3ccc(F)c(Cl)c3)ncnc2cc1O[C@H]1CCOC1 [Afatinib]	0	
